# Experimental data taken from PMC5218480 (PLoS ONE, 2017).
# Tested on: MV-4-11 cells
# Assay: Gene expression microarray analysis (Affymetrix PrimeView) and GSEA
# Format: cell-based, human
# Set-up: RFU PODN (11730768_x_at) / Fold change /veh PODN (11730768_x_at) / RFU LINC00158 (11744669_a_at) / Fold change /veh LINC00158 (11744669_a_at) / RFU DUSP10 (11751237_a_at) / Fold change /veh DUSP10 (11751237_a_at) / RFU ID3 (11757404_x_at) / Fold change /veh ID3 (11757404_x_at) / RFU PLEKHG5 (11737974_s_at) / Fold change /veh PLEKHG5 (11737974_s_at) / RFU LRRC4B (11730491_at) / Fold change /veh LRRC4B (11730491_at) / RFU GIMAP4 (11747438_a_at) / Fold change /veh GIMAP4 (11747438_a_at) / RFU KRT8 (11758183_x_at) / Fold change /veh KRT8 (11758183_x_at) / RFU CNN1 (11734310_a_at) / Fold change /veh CNN1 (11734310_a_at) / RFU VPS37D (11726825_at) / Fold change /veh VPS37D (11726825_at) / RFU C10orf10 (11716522_x_at) / Fold change /veh C10orf10 (11716522_x_at) / RFU KIR2DL2 /// KIR2DL4 /// KIR2DL5A /// KIR2DL5B /// KIR2DS1 /// KIR2DS2 /// KIR2DS3 /// KIR2DS4 /// KIR3DL3 /// KIR3DL3 /// KIR3DS1 (11738374_at) / Fold change /veh KIR2DL2 /// KIR2DL4 /// KIR2DL5A /// KIR2DL5B /// KIR2DS1 /// KIR2DS2 /// KIR2DS3 /// KIR2DS4 /// KIR3DL3 /// KIR3DL3 /// KIR3DS1 (11738374_at) / RFU C1QL1 (11718748_at) / Fold change /veh C1QL1 (11718748_at) / RFU TMPRSS4 (11747572_a_at) / Fold change /veh TMPRSS4 (11747572_a_at) / RFU HAMP (11756126_x_at) / Fold change /veh HAMP (11756126_x_at) / RFU RNFT2 (11725882_a_at) / Fold change /veh RNFT2 (11725882_a_at) / RFU NR4A2 (11747474_a_at) / Fold change /veh NR4A2 (11747474_a_at) / RFU ABCC12 (11746883_a_at) / Fold change /veh ABCC12 (11746883_a_at) / RFU TMEM136 (11760407_x_at) / Fold change /veh TMEM136 (11760407_x_at) / RFU CLDN22 /// WWC2 (11732394_at) / Fold change /veh CLDN22 /// WWC2 (11732394_at) / RFU HLA-DPB1 (11760878_x_at) / Fold change /veh HLA-DPB1 (11760878_x_at) / RFU SPINT1 (11716480_a_at) / Fold change /veh SPINT1 (11716480_a_at) / RFU GAP43 (11754022_s_at) / Fold change /veh GAP43 (11754022_s_at) / RFU A4GNT (11735810_at) / Fold change /veh A4GNT (11735810_at) / RFU PRB3 (11715151_x_at) / Fold change /veh PRB3 (11715151_x_at) / RFU TUBB4B (11761932_at) / Fold change /veh TUBB4B (11761932_at) / RFU CAPN14 (11732068_a_at) / Fold change /veh CAPN14 (11732068_a_at) / RFU TMCC2 (11721928_a_at) / Fold change /veh TMCC2 (11721928_a_at) / RFU IRGQ (11745062_a_at) / Fold change /veh IRGQ (11745062_a_at) / RFU FAM174B (11720279_a_at) / Fold change /veh FAM174B (11720279_a_at) / RFU TMPRSS4 (11748680_a_at) / Fold change /veh TMPRSS4 (11748680_a_at) / RFU FAM212B (11763350_a_at) / Fold change /veh FAM212B (11763350_a_at) / RFU PLEKHG5 (11743358_a_at) / Fold change /veh PLEKHG5 (11743358_a_at) / RFU ZSCAN30 (11745921_a_at) / Fold change /veh ZSCAN30 (11745921_a_at) / RFU CMKLR1 (11741424_a_at) / Fold change /veh CMKLR1 (11741424_a_at) / RFU LOC101060620 /// MAPK8IP1 (11723275_at) / Fold change /veh LOC101060620 /// MAPK8IP1 (11723275_at) / RFU SPTSSB (11747773_x_at) / Fold change /veh SPTSSB (11747773_x_at) / RFU PRSS12 (11739890_at) / Fold change /veh PRSS12 (11739890_at) / RFU BIN1 (11741810_x_at) / Fold change /veh BIN1 (11741810_x_at) / RFU WNT11 (11732464_a_at) / Fold change /veh WNT11 (11732464_a_at) / RFU C10orf10 (11716521_a_at) / Fold change /veh C10orf10 (11716521_a_at) / RFU C5orf56 (11738089_at) / Fold change /veh C5orf56 (11738089_at) / RFU CYB561 (11721691_x_at) / Fold change /veh CYB561 (11721691_x_at) / RFU ANKRD19P (11752326_a_at) / Fold change /veh ANKRD19P (11752326_a_at) / RFU OR2T12 /// OR2T33 /// OR2T8 (11738714_s_at) / Fold change /veh OR2T12 /// OR2T33 /// OR2T8 (11738714_s_at) / RFU VCAN (11748164_a_at) / Fold change /veh VCAN (11748164_a_at) / RFU JSRP1 (11732532_at) / Fold change /veh JSRP1 (11732532_at) / RFU KRTAP10-11 (11738290_x_at) / Fold change /veh KRTAP10-11 (11738290_x_at) / RFU MYO3A (11730013_a_at) / Fold change /veh MYO3A (11730013_a_at) / RFU EBF3 (11725865_a_at) / Fold change /veh EBF3 (11725865_a_at) / RFU CAMK2N1 (11719241_x_at) / Fold change /veh CAMK2N1 (11719241_x_at) / RFU C5orf56 (11738088_a_at) / Fold change /veh C5orf56 (11738088_a_at) / RFU OLFML3 (11715873_a_at) / Fold change /veh OLFML3 (11715873_a_at) / RFU LOC100653217 /// NTM (11731650_a_at) / Fold change /veh LOC100653217 /// NTM (11731650_a_at) / RFU MAPK11 (11762145_a_at) / Fold change /veh MAPK11 (11762145_a_at) / RFU FIZ1 (11724087_x_at) / Fold change /veh FIZ1 (11724087_x_at) / RFU OASL (11726364_x_at) / Fold change /veh OASL (11726364_x_at) / RFU SOX15 (11748057_x_at) / Fold change /veh SOX15 (11748057_x_at) / RFU CD79A (11719716_a_at) / Fold change /veh CD79A (11719716_a_at) / RFU HIST1H1D (11736915_at) / Fold change /veh HIST1H1D (11736915_at) / RFU CASKIN2 (11723855_a_at) / Fold change /veh CASKIN2 (11723855_a_at) / RFU LOC730098 (11760151_x_at) / Fold change /veh LOC730098 (11760151_x_at) / RFU OR4N2 (11742367_at) / Fold change /veh OR4N2 (11742367_at) / RFU PRRT2 (11749266_a_at) / Fold change /veh PRRT2 (11749266_a_at) / RFU SNX32 (11753110_a_at) / Fold change /veh SNX32 (11753110_a_at) / RFU CDHR5 (11726645_a_at) / Fold change /veh CDHR5 (11726645_a_at) / RFU RCAN1 (11760418_a_at) / Fold change /veh RCAN1 (11760418_a_at) / RFU FAM167A (11723789_a_at) / Fold change /veh FAM167A (11723789_a_at) / RFU FAM26E (11764081_at) / Fold change /veh FAM26E (11764081_at) / RFU ISYNA1 (11749810_s_at) / Fold change /veh ISYNA1 (11749810_s_at) / RFU ACY1 (11761880_at) / Fold change /veh ACY1 (11761880_at) / RFU 11764098_at / Fold change /veh 11764098_at / RFU SAMD14 (11745864_x_at) / Fold change /veh SAMD14 (11745864_x_at) / RFU NPB (11741838_a_at) / Fold change /veh NPB (11741838_a_at) / RFU TMPRSS6 (11731388_a_at) / Fold change /veh TMPRSS6 (11731388_a_at) / RFU KRTAP10-2 (11738614_at) / Fold change /veh KRTAP10-2 (11738614_at) / RFU ARHGAP8 /// PRR5-ARHGAP8 (11727945_x_at) / Fold change /veh ARHGAP8 /// PRR5-ARHGAP8 (11727945_x_at) / RFU KRTAP5-7 /// NADSYN1 (11734609_at) / Fold change /veh KRTAP5-7 /// NADSYN1 (11734609_at) / RFU RASL12 (11751679_a_at) / Fold change /veh RASL12 (11751679_a_at) / RFU CDKN2B (11736163_a_at) / Fold change /veh CDKN2B (11736163_a_at) / RFU PRF1 (11729649_at) / Fold change /veh PRF1 (11729649_at) / RFU, ZNF638 /// ZNF638-IT1 / Fold change vs veh, ZNF638 /// ZNF638-IT1 / RFU, PANK3 / Fold change vs veh, PANK3 / RFU, SH3YL1 / Fold change vs veh, SH3YL1 / RFU, ZEB2 / Fold change vs veh, ZEB2 / RFU, NRIP1 / Fold change vs veh, NRIP1 / RFU, PTTG1IP / Fold change vs veh, PTTG1IP / RFU, CAPN2 / Fold change vs veh, CAPN2 / RFU, MED14 / Fold change vs veh, MED14 / RFU, SNORA58 / Fold change vs veh, SNORA58 / RFU, C1orf63 / Fold change vs veh, C1orf63 / RFU, LRRFIP1 / Fold change vs veh, LRRFIP1 / RFU, NDUFAF7 / Fold change vs veh, NDUFAF7 / RFU, SLC12A2 / Fold change vs veh, SLC12A2 / RFU, IBTK / Fold change vs veh, IBTK / RFU, ESF1 / Fold change vs veh, ESF1 / Fold change vs veh, TMEM50B / RFU, TAOK1 / Fold change vs veh, TAOK1 / RFU, ACBD3 / Fold change vs veh, ACBD3 / RFU, TMA16 / Fold change vs veh, TMA16 / RFU, RWDD3 / Fold change vs veh, RWDD3 / RFU, BCAT1 / Fold change vs veh, BCAT1 / RFU, EDEM3 / Fold change vs veh, EDEM3 / RFU, TMEM33 / Fold change vs veh, TMEM33 / RFU, WDR75 / Fold change vs veh, WDR75 / RFU, AHCTF1 / Fold change vs veh, AHCTF1 / RFU, TFRC / Fold change vs veh, TFRC / RFU, ZDHHC17 / Fold change vs veh, ZDHHC17 / RFU, NOM1 / Fold change vs veh, NOM1 / RFU, ARL8B / Fold change vs veh, ARL8B / RFU, ZBTB11 / Fold change vs veh, ZBTB11 / RFU, TAMM41 / Fold change vs veh, TAMM41 / RFU, KIAA1704 /// LOC100996395 / Fold change vs veh, KIAA1704 /// LOC100996395 / RFU, ING1 / Fold change vs veh, ING1 / RFU, TRMT61B / Fold change vs veh, TRMT61B / RFU, FUBP3 / Fold change vs veh, FUBP3 / RFU, TP53 / Fold change vs veh, TP53 / RFU, TNKS2 / Fold change vs veh, TNKS2 / RFU, ZFP14 / Fold change vs veh, ZFP14 / RFU, ACTR2 / Fold change vs veh, ACTR2 / RFU, PPP3R1 / Fold change vs veh, PPP3R1 / RFU, PIK3R1 / Fold change vs veh, PIK3R1 / RFU, HNRNPA1 / Fold change vs veh, HNRNPA1 / RFU, RNF170 / Fold change vs veh, RNF170 / RFU, ZNF28 / Fold change vs veh, ZNF28 / RFU, RNGTT / Fold change vs veh, RNGTT / RFU, OGT / Fold change vs veh, OGT / RFU, BRD1 / Fold change vs veh, BRD1 / RFU, MARS / Fold change vs veh, MARS / RFU, ZNF655 / Fold change vs veh, ZNF655 / RFU, FAHD1 / Fold change vs veh, FAHD1 / RFU, BDP1 / Fold change vs veh, BDP1 / RFU, LRRCC1 / Fold change vs veh, LRRCC1 / RFU, ARID1A / Fold change vs veh, ARID1A / RFU, ZNF146 / Fold change vs veh, ZNF146 / RFU, ZNF330 / Fold change vs veh, ZNF330 / RFU, GPN3 / Fold change vs veh, GPN3 / RFU, C9orf123 / Fold change vs veh, C9orf123 / RFU, N4BP2L2 / Fold change vs veh, N4BP2L2 / RFU, ARFIP1 / Fold change vs veh, ARFIP1 / RFU, FAM179B / Fold change vs veh, FAM179B / RFU, BCL10 / Fold change vs veh, BCL10 / RFU, UHRF1BP1L / Fold change vs veh, UHRF1BP1L / RFU, BET1 / Fold change vs veh, BET1 / RFU, CNOT2 / Fold change vs veh, CNOT2 / RFU, ZNF268 / Fold change vs veh, ZNF268 / Fold change vs veh, ZNF507 / RFU, DGCR2 / Fold change vs veh, DGCR2 / RFU, WDSUB1 / Fold change vs veh, WDSUB1 / Fold change vs veh, HSP90B1 /// MIR3652 / RFU, ADSS / Fold change vs veh, ADSS / RFU, GK / Fold change vs veh, GK / RFU, ZNF148 / Fold change vs veh, ZNF148 / RFU, TAF9 / Fold change vs veh, TAF9 / RFU, SLC1A5 / Fold change vs veh, SLC1A5 / RFU, SLMO2 / Fold change vs veh, SLMO2 / RFU, ABCC4 / Fold change vs veh, ABCC4 / RFU, LOC101060439 /// RAP1B / Fold change vs veh, LOC101060439 /// RAP1B / RFU, RFX7 / Fold change vs veh, RFX7 / RFU, GTPBP10 / Fold change vs veh, GTPBP10 / RFU, CNEP1R1 / Fold change vs veh, CNEP1R1 / RFU, BIVM-ERCC5 /// ERCC5 / Fold change vs veh, BIVM-ERCC5 /// ERCC5 / RFU, ILF3 / Fold change vs veh, ILF3 / RFU 11762660_at / Fold change /veh 11762660_at / RFU VCAN (11757783_s_at) / Fold change /veh VCAN (11757783_s_at) / RFU DDX43 (11728927_at) / Fold change /veh DDX43 (11728927_at) / RFU KRT8 (11758188_x_at) / Fold change /veh KRT8 (11758188_x_at) / RFU NKD1 (11759106_at) / Fold change /veh NKD1 (11759106_at) / RFU SRD5A1 (11742802_a_at) / Fold change /veh SRD5A1 (11742802_a_at) / RFU TPSAB1 /// TPSB2 (11721975_s_at) / Fold change /veh TPSAB1 /// TPSB2 (11721975_s_at) / RFU GSTM3 (11746129_a_at) / Fold change /veh GSTM3 (11746129_a_at) / RFU IL23R (11737362_x_at) / Fold change /veh IL23R (11737362_x_at) / RFU TMEM51 (11727254_a_at) / Fold change /veh TMEM51 (11727254_a_at) / RFU PIWIL2 (11732686_x_at) / Fold change /veh PIWIL2 (11732686_x_at) / RFU ORM1 (11744905_x_at) / Fold change /veh ORM1 (11744905_x_at) / RFU CCDC152 (11743942_at) / Fold change /veh CCDC152 (11743942_at) / RFU ECM1 (11717891_a_at) / Fold change /veh ECM1 (11717891_a_at) / RFU IL23R (11748794_a_at) / Fold change /veh IL23R (11748794_a_at) / RFU TNFAIP8L3 (11732012_x_at) / Fold change /veh TNFAIP8L3 (11732012_x_at) / RFU MBOAT4 (11741988_at) / Fold change /veh MBOAT4 (11741988_at) / RFU 11764193_at / Fold change /veh 11764193_at / RFU TMEM53 (11763286_at) / Fold change /veh TMEM53 (11763286_at) / RFU MAGEB2 (11727129_at) / Fold change /veh MAGEB2 (11727129_at) / RFU TMEM200A (11744735_a_at) / Fold change /veh TMEM200A (11744735_a_at) / RFU CCDC152 (11751479_a_at) / Fold change /veh CCDC152 (11751479_a_at) / RFU FAM211A (11726209_a_at) / Fold change /veh FAM211A (11726209_a_at) / RFU RGS16 (11746705_a_at) / Fold change /veh RGS16 (11746705_a_at) / RFU VCAN (11755009_s_at) / Fold change /veh VCAN (11755009_s_at) / RFU RHOB (11743442_s_at) / Fold change /veh RHOB (11743442_s_at) / RFU RGS16 (11720943_a_at) / Fold change /veh RGS16 (11720943_a_at) / RFU RGS16 (11720944_at) / Fold change /veh RGS16 (11720944_at) / RFU, VPS4B / Fold change vs veh, VPS4B / RFU, CREB1 / Fold change vs veh, CREB1 / RFU, DNAJC13 / Fold change vs veh, DNAJC13 / RFU, GNAQ / Fold change vs veh, GNAQ / RFU, CDK5R1 / Fold change vs veh, CDK5R1 / RFU, ZRANB3 / Fold change vs veh, ZRANB3 / RFU, CUL4A / Fold change vs veh, CUL4A / RFU, CCNY / Fold change vs veh, CCNY / RFU, UFL1 / Fold change vs veh, UFL1 / RFU, COG3 / Fold change vs veh, COG3 / RFU, DIAPH2 / Fold change vs veh, DIAPH2 / RFU, SKA2 / Fold change vs veh, SKA2 / RFU, AFF3 / Fold change vs veh, AFF3 / RFU, LMF1 / Fold change vs veh, LMF1 / RFU, IPO11 / Fold change vs veh, IPO11 / RFU, DFFB / Fold change vs veh, DFFB / RFU, FOXP1 / Fold change vs veh, FOXP1 / RFU, CARD8 / Fold change vs veh, CARD8 / RFU, STRN3 / Fold change vs veh, STRN3 / RFU, ADK / Fold change vs veh, ADK / RFU, RASSF2 / Fold change vs veh, RASSF2 / RFU, WIPF1 / Fold change vs veh, WIPF1 / RFU, LARP1B / Fold change vs veh, LARP1B / RFU, RASA1 / Fold change vs veh, RASA1 / RFU, RB1 / Fold change vs veh, RB1 / RFU, PPFIA1 / Fold change vs veh, PPFIA1 / RFU, MAT2A / Fold change vs veh, MAT2A / RFU, CCT5 / Fold change vs veh, CCT5 / RFU, WDR92 / Fold change vs veh, WDR92 / RFU, CUX1 / Fold change vs veh, CUX1 / RFU, TTC7A / Fold change vs veh, TTC7A / RFU, TMEM135 / Fold change vs veh, TMEM135 / RFU, DEPTOR / Fold change vs veh, DEPTOR / RFU, CPM / Fold change vs veh, CPM / RFU, DNAJB6 / Fold change vs veh, DNAJB6 / RFU, CACNA2D3 / Fold change vs veh, CACNA2D3 / RFU, DTX4 / Fold change vs veh, DTX4 / RFU, TFCP2 / Fold change vs veh, TFCP2 / RFU, GMCL1 /// GMCL1P1 / Fold change vs veh, GMCL1 /// GMCL1P1 / RFU, AEBP2 / Fold change vs veh, AEBP2 / RFU, SNHG1 /// SNORD22 /// SNORD25 /// SNORD26 /// SNORD27 /// SNORD28 /// SNORD29 /// SNORD31 / Fold change vs veh, SNHG1 /// SNORD22 /// SNORD25 /// SNORD26 /// SNORD27 /// SNORD28 /// SNORD29 /// SNORD31 / Fold change (Aza/veh), C12orf56 (ProbeSet 11735607_a_at) / Fold change (ACY-1035/veh), C12orf56 (ProbeSet 11735607_a_at) / Fold change (Aza/veh), FGFR1OP (ProbeSet 11751329_s_at) / Fold change (ACY-1035/veh), FGFR1OP (ProbeSet 11751329_s_at) / Fold change (Aza/veh), VPS36 (ProbeSet 11739960_a_at) / Fold change (ACY-1035/veh), VPS36 (ProbeSet 11739960_a_at) / RFU SYPL1 (11715823_x_at) / Fold change /veh SYPL1 (11715823_x_at) / RFU IGFBP7 (11715501_s_at) / Fold change /veh IGFBP7 (11715501_s_at) / RFU REEP3 (11722064_at) / Fold change /veh REEP3 (11722064_at) / RFU IGLL1 (11728026_x_at) / Fold change /veh IGLL1 (11728026_x_at): dose or concentration left out as unconfirmed
# Settings: ProbeSet 11741311_a_at; LIST B
compound,measurement,value
Nc1ncn([C@@H]2O[C@H](CO)[C@@H](O)[C@H]2O)c(=O)n1 [azacitidine],"Fold change vs veh, ZNF655",0.98
